From the CheMixHub viscosity set
Values joined by “and” are separate entries in the source; they are usually repeats but may differ in a detail not shown here. Equal entries are not always repeated. ± gives the uncertainty stated by the source.

| Structure (SMILES) | viscosity (298.15 K, 101.33 kPa) | viscosity (303.15 K, 101 kPa) | viscosity (313.15 K, 101 kPa) | viscosity (318.15 K, 101 kPa) | viscosity (323.15 K, 101 kPa) | viscosity (293.15 K, 100 kPa) | viscosity (303.15 K, 100 kPa) | viscosity (308.15 K, 101 kPa) | viscosity (313.15 K, 100 kPa) | viscosity (298.15 K, 100 kPa) | viscosity (298.15 K, 101 kPa) | viscosity (308.15 K, 100 kPa) | viscosity (308.15 K, 101.33 kPa) | other results |
| --- | --- | --- | --- | --- | --- | --- | --- | --- | --- | --- | --- | --- | --- | --- |
| C=CCO | 1.232 ± 0.031 mPa·s | 1.122 ± 0.01 mPa·s | 0.9208 ± 0.0088 mPa·s | 0.8419 ± 0.0081 mPa·s | 0.7703 ± 0.0075 mPa·s |  |  |  |  |  |  |  |  |  |
| CC(=O)[O-].CC[n+]1ccn(C)c1 |  | 93.62 ± 6.1 mPa·s and 95.11 ± 2.8 mPa·s and 102.4 ± 6.3 mPa·s | 57.72 ± 2.5 mPa·s and 55.52 ± 3.6 mPa·s and 60.42 ± 3.6 mPa·s | 44.15 ± 2.9 mPa·s | 35.74 ± 2.3 mPa·s and 36.27 ± 0.97 mPa·s and 38.97 ± 2.4 mPa·s | 203 ± 11 mPa·s | 89.44 ± 4.3 mPa·s | 71.26 ± 4.6 mPa·s | 53.45 ± 2.5 mPa·s and 61.13 ± 2 mPa·s |  |  |  |  | viscosity (293.15 K, 101 kPa): 197 ± 12 mPa·s; viscosity (323.15 K, 100 kPa): 34.58 ± 1.6 mPa·s |
| CC(=O)[O-].C[NH+]1C=CN=C1 |  |  |  |  |  |  |  |  |  | 6.22 ± 0.14 mPa·s |  |  |  |  |
| CC(C)C#N |  | 0.461 ± 0.008 mPa·s |  |  |  |  |  | 0.434 ± 0.008 mPa·s and 0.433 ± 0.008 mPa·s |  |  |  |  |  |  |
| CCCC(O)CC (configuration not stated) | 4.34 ± 0.04 mPa·s and 4.34 ± 0.035 mPa·s |  |  |  |  |  |  |  |  |  |  |  |  |  |
| CCCCCCCCCCC | 1.084 ± 0.027 mPa·s and 1.084 ± 0.013 mPa·s |  |  | 0.7937 ± 0.01 mPa·s |  | 1.187 ± 0.048 mPa·s and 1.155 ± 0.014 mPa·s | 1.009 ± 0.041 mPa·s and 0.993 ± 0.021 mPa·s and 0.983 ± 0.012 mPa·s | 0.9373 ± 0.012 mPa·s | 0.869 ± 0.035 mPa·s and 0.861 ± 0.018 mPa·s and 0.849 ± 0.011 mPa·s | 1.074 ± 0.023 mPa·s | 1.075 ± 0.013 mPa·s | 0.935 ± 0.038 mPa·s and 0.923 ± 0.02 mPa·s and 0.912 ± 0.011 mPa·s |  | viscosity (318.15 K, 100 kPa): 0.812 ± 0.033 mPa·s and 0.806 ± 0.017 mPa·s and 0.792 ± 0.01 mPa·s; viscosity (323.15 K, 100 kPa): 0.761 ± 0.031 mPa·s and 0.756 ± 0.016 mPa·s and 0.742 ± 0.009 mPa·s |
| CCOC(=O)CCC(=O)OCC | 2.466 ± 0.03 mPa·s |  |  |  |  |  |  |  |  |  |  |  | 1.973 ± 0.024 mPa·s | viscosity (303.15 K, 101.33 kPa): 2.196 ± 0.027 mPa·s; viscosity (313.15 K, 101.33 kPa): 1.779 ± 0.022 mPa·s; viscosity (318.15 K, 101.33 kPa): 1.615 ± 0.02 mPa·s |
| CN1CCC[C@H]1c1cccnc1 | 3.894 ± 0.039 mPa·s (2×) and 3.891 ± 0.039 mPa·s |  |  |  |  |  | 3.6 ± 0.1 mPa·s | 3.156 ± 0.083 mPa·s and 3.156 ± 0.11 mPa·s |  |  | 3.894 ± 0.1 mPa·s (2×) and 3.894 ± 0.14 mPa·s (2×) and 3.894 ± 0.05 mPa·s |  | 3.156 ± 0.032 mPa·s | viscosity (318.05 K, 100 kPa): 2.5 ± 0.1 mPa·s; viscosity (323.15 K, 100 kPa): 2.195 ± 0.046 mPa·s; viscosity (323.15 K, 101.33 kPa): 2.038 ± 0.02 mPa·s |
| COCC(C)OCC(C)O (configuration not stated) | 3.691 ± 0.053 mPa·s |  |  |  |  |  |  |  |  |  |  |  | 2.765 ± 0.04 mPa·s | viscosity (318.15 K, 101.33 kPa): 2.147 ± 0.032 mPa·s |
| N#C[C-](C#N)C#N.OCC[n+]1ccccc1 |  | 71.78 ± 7.3 mPa·s | 42.31 ± 4.3 mPa·s | 33.96 ± 3.4 mPa·s | 27.78 ± 2.8 mPa·s |  |  | 54.57 ± 5.5 mPa·s |  |  | 97.48 ± 10 mPa·s |  |  | viscosity (293.15 K, 101 kPa): 136.6 ± 14 mPa·s |
| NC=O | 3.217 ± 0.018 mPa·s |  |  |  | 2.01 ± 0.05 mPa·s and 1.905 ± 0.019 mPa·s and 1.966 ± 0.091 mPa·s | 3.734 ± 0.75 mPa·s | 2.964 ± 0.59 mPa·s and 2.874 ± 0.066 mPa·s |  | 2.351 ± 0.054 mPa·s | 3.34 ± 0.07 mPa·s |  | 2.612 ± 0.06 mPa·s | 2.498 ± 0.022 mPa·s and 2.59 ± 0.13 mPa·s | viscosity (293.15 K, 101 kPa): 3.656 ± 0.11 mPa·s and 3.792 ± 0.17 mPa·s; viscosity (298.15 K, 101.3 kPa): 3.393 ± 0.031 mPa·s; viscosity (303.15 K, 101.3 kPa): 2.8 ± 0.1 mPa·s; viscosity (303.15 K, 101.33 kPa): 2.802 ± 0.025 mPa·s and 2.84 ± 0.14 mPa·s; viscosity (308 K, 101 kPa): 2.648 mPa·s; viscosity (308.15 K, 101.3 kPa): 2.5 ± 0.1 mPa·s; viscosity (313 K, 101 kPa): 2.273 ± 0.35 mPa·s; viscosity (313.15 K, 101.3 kPa): 2.2 ± 0.1 mPa·s; viscosity (313.15 K, 101.33 kPa): 2.243 ± 0.02 mPa·s; viscosity (318.15 K, 101.33 kPa): 2.032 ± 0.018 mPa·s; viscosity (323.15 K, 101.3 kPa): 1.6 ± 0.1 mPa·s; viscosity (323.15 K, 101.33 kPa): 1.846 ± 0.017 mPa·s |
| OCCCO |  | 33.7 ± 0.2 mPa·s | 22.1 ± 0.2 mPa·s and 20.29 ± 1.2 mPa·s | 18.8 ± 0.1 mPa·s and 16.88 ± 0.99 mPa·s | 14.16 ± 0.84 mPa·s | 54.53 ± 11 mPa·s (2×) and 53.1 ± 11 mPa·s and 52.75 ± 0.55 mPa·s | 34.62 ± 6.9 mPa·s (2×) and 33.4 ± 6.7 mPa·s and 32.51 ± 0.53 mPa·s |  | 21.85 ± 0.49 mPa·s | 42.89 ± 8.6 mPa·s (2×) and 41.2 ± 8.3 mPa·s | 42.1 ± 0.3 mPa·s and 42.06 ± 0.37 mPa·s | 27.06 ± 0.44 mPa·s |  | viscosity (298.15 K, 101.3 kPa): 41.77 ± 1.8 mPa·s; viscosity (303.15 K, 101.3 kPa): 33.35 ± 1.4 mPa·s; viscosity (313.15 K, 101.3 kPa): 22.39 ± 0.94 mPa·s; viscosity (318.15 K, 100 kPa): 19.93 ± 0.32 mPa·s; viscosity (318.15 K, 101.3 kPa): 18.61 ± 0.78 mPa·s; viscosity (323.15 K, 101.3 kPa): 15.66 ± 0.66 mPa·s |
| OCCCl | 2.81 ± 0.063 mPa·s and 2.985 ± 0.022 mPa·s |  |  |  |  |  |  |  | 1.882 ± 0.11 mPa·s |  |  | 2.234 ± 0.14 mPa·s | 2.15 ± 0.049 mPa·s | viscosity (293.15 K, 101.33 kPa): 3.588 ± 0.032 mPa·s; viscosity (298.15 K, 101.3 kPa): 2.973 ± 0.036 mPa·s; viscosity (303.15 K, 101.3 kPa): 2.611 ± 0.032 mPa·s; viscosity (303.15 K, 101.33 kPa): 2.624 ± 0.53 mPa·s and 2.448 ± 0.056 mPa·s |
